Measured values published in patent publication US20200216439A1, “HETERO-1,5,6,7-TETRAHYDRO-4H-INDOL-4-ONES” (BAYER PHARMA AKTIENGESELLSCHAFT, priority 2015, published 2020).

target: T1, catalytic domain of human Bub1 (amino acids 704-1085) (Homo sapiens, UniProt O43683); experiment: Bub1 kinase assay (TR-FRET); format: biochemical; settings: TR-FRET; ATP 10 μM, peptide substrate 1 μM; 60 min at 22° C.; average or median if tested more than once; read-out: Inhibition of Bub1 kinase IC50
T1 construct: catalytic domain of human Bub1 (amino acids 704-1085); His6 (N); made in house; host or cells: Hi5 insect cells
How it was run: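 Human Bub1 catalytic domain (704-1085, His6-tagged, Hi5-expressed, ~200 ng/mL) preincubated with compound 15 min at 22 °C, then reacted 60 min at 22 °C with 10 μM ATP and 1 μM biotinylated peptide substrate, pH 7.5. EDTA stop; TR-FRET 665/620 ratio; IC50 from 4-parameter fit, 11 concentrations in duplicate.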

T1 sequence (O43683 704-1085): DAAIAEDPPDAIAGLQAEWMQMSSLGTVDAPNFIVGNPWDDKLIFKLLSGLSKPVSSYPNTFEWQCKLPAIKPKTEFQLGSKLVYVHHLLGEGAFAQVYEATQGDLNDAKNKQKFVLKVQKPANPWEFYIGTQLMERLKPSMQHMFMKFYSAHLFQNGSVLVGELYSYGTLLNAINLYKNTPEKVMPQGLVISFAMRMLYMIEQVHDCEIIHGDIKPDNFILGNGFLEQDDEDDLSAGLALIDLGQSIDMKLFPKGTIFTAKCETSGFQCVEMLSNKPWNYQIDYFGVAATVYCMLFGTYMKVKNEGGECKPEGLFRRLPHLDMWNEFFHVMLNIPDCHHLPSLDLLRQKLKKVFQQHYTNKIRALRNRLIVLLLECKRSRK

| IC50 | Compound |
| --- | --- |
| 8 nM | CC(C)(C)CC(=O)N1CC(=O)c2c([nH]c(-c3ccncc3)c2Nc2ccccc2)C1 [Example 58, 6-(3,3-Dimethylbutanoyl)-3-(phenylamino)-2-(pyridin-4-yl)-1,5,6,7-tetrahydro-4H-pyrrolo[2,3-c]pyridin-4-one] |
| 10 nM | O=C1CN(C(=O)c2cnc[nH]2)Cc2[nH]c(-c3ccncc3)c(Nc3ccccc3)c21 [Example 59, 6-(1H-Imidazol-5-ylcarbonyl)-3-(phenylamino)-2-(pyridin-4-yl)-1,5,6,7-tetrahydro-4H-pyrrolo[2,3-c]pyridin-4-one] |
| 67 nM | Cn1cnc(C(=O)N2CC(=O)c3c([nH]c(-c4ccncc4)c3Nc3ccccc3)C2)c1 [Example 60, 6-[(1-Methyl-1H-imidazol-4-yl)carbonyl]-3-(phenylamino)-2-(pyridin-4-yl)-1,5,6,7-tetrahydro-4H-pyrrolo[2,3-c]pyridin-4-one] |
| 40 nM | O=C1CN(C(=O)c2ccccn2)Cc2[nH]c(-c3ccncc3)c(Nc3ccccc3)c21 [Example 61, 3-(phenylamino)-2-(pyridin-4-yl)-6-(pyridin-2-ylcarbonyl)-1,5,6,7-tetrahydro-4H-pyrrolo[2,3-c]pyridin-4-one] |
| 15 nM | O=C1CN(C(=O)c2cccnc2)Cc2[nH]c(-c3ccncc3)c(Nc3ccccc3)c21 [Example 62, 3-(phenylamino)-2-(pyridin-4-yl)-6-(pyridin-3-ylcarbonyl)-1,5,6,7-tetrahydro-4H-pyrrolo[2,3-c]pyridin-4-one] |
| 9 nM | O=C1CN(C(=O)c2ccncc2)Cc2[nH]c(-c3ccncc3)c(Nc3ccccc3)c21 [Example 63, 3-(phenylamino)-2-(pyridin-4-yl)-6-(pyridin-4-ylcarbonyl)-1,5,6,7-tetrahydro-4H-pyrrolo[2,3-c]pyridin-4-one] |
| 1400 nM | Cn1c2c(c(Nc3ccccc3)c1-c1ccncc1)C(=O)CN(S(C)(=O)=O)C2 [Example 64, 1-Methyl-6-(methylsulfonyl)-3-(phenylamino)-2-(pyridin-4-yl)-1,5,6,7-tetrahydro-4H-pyrrolo[2,3-c]pyridin-4-one] |
| 1680 nM | CCn1c2c(c(Nc3ccccc3)c1-c1ccncc1)C(=O)CN(S(C)(=O)=O)C2 [Example 65, 1-Ethyl-6-(methylsulfonyl)-3-(phenylamino)-2-(pyridin-4-yl)-1,5,6,7-tetrahydro-4H-pyrrolo[2,3-c]pyridin-4-one] |
| 9 nM | O=C1CN(S(=O)(=O)C2CC2)Cc2[nH]c(-c3ccncc3)c(Nc3ccccc3)c21 [Example 66, 6-(Cyclopropylsulfonyl)-3-(phenylamino)-2-(pyridin-4-yl)-1,5,6,7-tetrahydro-4H-pyrrolo[2,3-c]pyridin-4-one] |
| 6 nM | CC(C)S(=O)(=O)N1CC(=O)c2c([nH]c(-c3ccncc3)c2Nc2ccccc2)C1 [Example 67, 3-(phenylamino)-6-(propan-2-ylsulfonyl)-2-(pyridin-4-yl)-1,5,6,7-tetrahydro-4H-pyrrolo[2,3-c]pyridin-4-one] |
| 5 nM | O=C1CN(S(=O)(=O)C(F)F)Cc2[nH]c(-c3ccncc3)c(Nc3ccccc3)c21 [Example 68, 6-[(Difluoromethyl)sulfonyl]-3-(phenylamino)-2-(pyridin-4-yl)-1,5,6,7-tetrahydro-4H-pyrrolo[2,3-c]pyridin-4-one] |
| 4 nM | O=C1CN(S(=O)(=O)CCC(F)(F)F)Cc2[nH]c(-c3ccncc3)c(Nc3ccccc3)c21 [Example 69, 3-(phenylamino)-2-(pyridin-4-yl)-6-[(3,3,3-trifluoropropyl)sulfonyl]-1,5,6,7-tetrahydro-4H-pyrrolo[2,3-c]pyridin-4-one] |
| 7 nM | O=C1CN(S(=O)(=O)C2CCOCC2)Cc2[nH]c(-c3ccncc3)c(Nc3ccccc3)c21 [Example 70, 3-(phenylamino)-2-(pyridin-4-yl)-6-(tetrahydro-2H-pyran-4-ylsulfonyl)-1,5,6,7-tetrahydro-4H-pyrrolo[2,3-c]pyridin-4-one] |
| 8 nM | O=C1CN(S(=O)(=O)CC2CCOCC2)Cc2[nH]c(-c3ccncc3)c(Nc3ccccc3)c21 [Example 71, 3-(phenylamino)-2-(pyridin-4-yl)-6-[(tetrahydro-2H-pyran-4-ylmethyl)sulfonyl]-1,5,6,7-tetrahydro-4H-pyrrolo[2,3-c]pyridin-4-one] |
| 7 nM | O=C1CN(S(=O)(=O)c2cnc[nH]2)Cc2[nH]c(-c3ccncc3)c(Nc3ccccc3)c21 [Example 72, 6-(1H-Imidazol-5-ylsulfonyl)-3-(phenylamino)-2-(pyridin-4-yl)-1,5,6,7-tetrahydro-4H-pyrrolo[2,3-c]pyridin-4-one] |
| 8 nM | Cn1cnc(S(=O)(=O)N2CC(=O)c3c([nH]c(-c4ccncc4)c3Nc3ccccc3)C2)c1 [Example 73, 6-[(1-Methyl-1H-imidazol-4-yl)sulfonyl]-3-(phenylamino)-2-(pyridin-4-yl)-1,5,6,7-tetrahydro-4H-pyrrolo[2,3-c]pyridin-4-one] |
| 6 nM | O=C1CN(S(=O)(=O)c2ccccn2)Cc2[nH]c(-c3ccncc3)c(Nc3ccccc3)c21 [Example 74, 3-(phenylamino)-2-(pyridin-4-yl)-6-(pyridin-2-ylsulfonyl)-1,5,6,7-tetrahydro-4H-pyrrolo[2,3-c]pyridin-4-one] |

| IC50 | Compound |
| --- | --- |
| 6 nM | O=C1CN(S(=O)(=O)c2cccnc2)Cc2[nH]c(-c3ccncc3)c(Nc3ccccc3)c21 [Example 75, 3-(phenylamino)-2-(pyridin-4-yl)-6-(pyridin-3-ylsulfonyl)-1,5,6,7-tetrahydro-4H-pyrrolo[2,3-c]pyridin-4-one] |
| 7 nM | CCOC(=O)N1CC(=O)c2c([nH]c(-c3ccncc3)c2Nc2ccccc2)C1 [Example 76, Ethyl 4-oxo-3-(phenylamino)-2-(pyridin-4-yl)-1,4,5,7-tetrahydro-6H-pyrrolo[2,3-c]pyridine-6-carboxylate] |
| 11 nM | CC(C)OC(=O)N1CC(=O)c2c([nH]c(-c3ccncc3)c2Nc2ccccc2)C1 [Example 77, Propan-2-yl 4-oxo-3-(phenylamino)-2-(pyridin-4-yl)-1,4,5,7-tetrahydro-6H-pyrrolo[2,3-c]pyridine-6-carboxylate] |
| 73 nM | CC(C)(C)COC(=O)N1CC(=O)c2c([nH]c(-c3ccncc3)c2Nc2ccccc2)C1 [Example 78, 2,2-Dimethylpropyl 4-oxo-3-(phenylamino)-2-(pyridin-4-yl)-1,4,5,7-tetrahydro-6H-pyrrolo[2,3-c]pyridine-6-carboxylate] |
| 8 nM | O=C1CN(C(=O)OCCF)Cc2[nH]c(-c3ccncc3)c(Nc3ccccc3)c21 [Example 79, 2-Fluoroethyl 4-oxo-3-(phenylamino)-2-(pyridin-4-yl)-1,4,5,7-tetrahydro-6H-pyrrolo[2,3-c]pyridine-6-carboxylate] |
| 11 nM | COCCOC(=O)N1CC(=O)c2c([nH]c(-c3ccncc3)c2Nc2ccccc2)C1 [Example 80, 2-Methoxyethyl 4-oxo-3-(phenylamino)-2-(pyridin-4-yl)-1,4,5,7-tetrahydro-6H-pyrrolo[2,3-c]pyridine-6-carboxylate] |
| 4 nM | CNC(=O)N1CC(=O)c2c([nH]c(-c3ccncc3)c2Nc2ccccc2)C1 [Example 81, N-Methyl-4-oxo-3-(phenylamino)-2-(pyridin-4-yl)-1,4,5,7-tetrahydro-6H-pyrrolo[2,3-c]pyridine-6-carboxamide] |
| 4 nM | CN(C)C(=O)N1CC(=O)c2c([nH]c(-c3ccncc3)c2Nc2ccccc2)C1 [Example 82] |
| 12 nM | O=C1CN(C(=O)NCC(F)F)Cc2[nH]c(-c3ccncc3)c(Nc3ccccc3)c21 [Example 83, N-(2,2-Difluoroethyl)-4-oxo-3-(phenylamino)-2-(pyridin-4-yl)-1,4,5,7-tetrahydro-6H-pyrrolo[2,3-c]pyridine-6-carboxamide] |
| 9 nM | O=C1CN(C(=O)NC2CC2)Cc2[nH]c(-c3ccncc3)c(Nc3ccccc3)c21 [Example 84, N-Cyclopropyl-4-oxo-3-(phenylamino)-2-(pyridin-4-yl)-1,4,5,7-tetrahydro-6H-pyrrolo[2,3-c]pyridine-6-carboxamide] |
| 13 nM | CC(C)(C)NC(=O)N1CC(=O)c2c([nH]c(-c3ccncc3)c2Nc2ccccc2)C1 [Example 85, N-tert-Butyl-4-oxo-3-(phenylamino)-2-(pyridin-4-yl)-1,4,5,7-tetrahydro-6H-pyrrolo[2,3-c]pyridine-6-carboxamide] |
| 11 nM | COCCNC(=O)N1CC(=O)c2c([nH]c(-c3ccncc3)c2Nc2ccccc2)C1 [Example 86, N-(2-Methoxyethyl)-4-oxo-3-(phenylamino)-2-(pyridin-4-yl)-1,4,5,7-tetrahydro-6H-pyrrolo[2,3-c]pyridine-6-carboxamide] |
| 11 nM | CSCCNC(=O)N1CC(=O)c2c([nH]c(-c3ccncc3)c2Nc2ccccc2)C1 [Example 87, N-[2-(Methylsulfanyl)ethyl]4-oxo-3-(phenylamino)-2-(pyridin-4-yl)-1,4,5,7-tetrahydro-6H-pyrrolo[2,3-c]pyridine-6-carboxamide] |
| 31 nM | CS(=O)(=O)CCNC(=O)N1CC(=O)c2c([nH]c(-c3ccncc3)c2Nc2ccccc2)C1 [Example 89, N-[2-(Methylsulfonyl)ethyl]-4-oxo-3-(phenylamino)-2-(pyridin-4-yl)-1,4,5,7-tetrahydro-6H-pyrrolo[2,3-c]pyridine-6-carboxamide] |
| 21 nM | COCCOCCNC(=O)N1CC(=O)c2c([nH]c(-c3ccncc3)c2Nc2ccccc2)C1 [Example 90, N-[2-(2-Methoxyethoxy)ethyl]-4-oxo-3-(phenylamino)-2-(pyridin-4-yl)-1,4,5,7-tetrahydro-6H-pyrrolo[2,3-c]pyridine-6-carboxamide] |
| 14 nM | O=C1CN(C(=O)N2CCNC2=O)Cc2[nH]c(-c3ccncc3)c(Nc3ccccc3)c21 [Example 91, 6-[(2-Oxoimidazolidin-1-yl)carbonyl]-3-(phenylamino)-2-(pyridin-4-yl)-1,5,6,7-tetrahydro-4H-pyrrolo[2,3-c]pyridin-4-one] |
